# Measured values taken from patent US4591601A, “Anticonvulsant dioxolane methane sulfamates” (McNeilab, Inc., priority 1985, dated 1986).
# Test system: tonic extensor seizure
# Assay: maximal electroshock test (MES), block of tonic extensor seizure
# Format: in vivo, mice (male albino, Swiss Webster)
# Details: Mus musculus, ip, 0.5 h; mice, i.p., tested 30 minutes after injection; 1b in aqueous solution, Examples 2 and 3 as suspensions with Tween 80 and water; probit analysis
# Procedure: The compounds of formula (I) are useful as anticonvulsant agents. The anticonvulsant activity of the subject compounds was determined using a standard "maximal electroshock test" (MES). In this test, activity is indicated by a block of the tonic extensor seizure caused by application of an electric shock to mice via corneal electrodes, as described by Swinyard et al in J. Pharmacol. Exptl. Therap. 106, 319 (1952). A more recent description of current anticonvulsant drug screening is given in Swinyard et al in Epilepsia 19, 409 (1978). Non-fasted male albino mice of the Swiss Webster strain (Royal-Hart Laboratories, New Hampton, N.Y.) weighing 18-24 grams were used in this test. Six to eight groups of ten mice each were used per ED50 determination. The product of Example 1b was administered in aqueous solution while the compounds produced in Examples 2 and 3 were administered as suspensions prepared with Tween 80 and water. Testing was conducted at 30 minutes following intraperitoneal injection of the test compound. A group of ten mice injected with saline 10 ml/kg i.p. and tested 30 minutes later served as controls. ED50 's were calculated using a computerized probit analysis procedure.
row,Compound,ED50 [mg/kg]
1,"CC1(C)OCC(COS(N)(=O)=O)O1 (stereo not drawn) [Example 1b, (2,2-Dimethyl-1,3-dioxolan-4-yl)methyl sulfamic acid ester]",105
2,"CCCCCCCCCC1(C)OCC(COS(N)(=O)=O)O1 (stereo not drawn) [Example 2, (2-Methyl-2-nonyl-1,3-dioxolan-4-yl)methyl sulfamic acid ester Hydrate compound with 2-undecanone (10:1:2)]",319
3,"NS(=O)(=O)OCC1COC2(CCCCC2)O1 (stereo not drawn) [Example 3, (1,4-Dioxaspiro[4.5]dec-2-yl)methyl Sulfamic acid ester]",169
